This is an account of results in patent US6020480A, “Caged NADP and NAD” (The Regents of the University of California, priority 1997, dated 2000).

Test [1] in a line: Rates of photorelease from decay of the aci-nitro anions after photolysis. It counts as physicochemical. How it is done: The decay of aci-nitro intermediates was monitored at 402 nm or 418 nm with an Osram 50-W tungsten halogen lamp following excitation at 355 nm with a 55 mJ 8-ns pulse. Samples were prepared with 50 mM phosphate buffer, pH 7.0 or pH 6.0. […] Kinetic analysis was made by nonlinear, least-squares computer iteration. The averages of three trials are reported.

The target in test [2] is T1, IDH, isocitrate dehydrogenase (Escherichia coli) (Escherichia coli, UniProt P08200).
T1 construct: made in house
In words: Crystallographic analysis of caged compounds soaked into IDH crystals. The test is classed as binding. Conditions: 250 mM soak. The source says:
IDH was purified and crystallized as described previously by Reeves, H. C., Daumy, G. O., Lin, C. C., and Houston, M. (1972) Biochim. Biophys. Acta 258, 27-39; LaPorte, D. C., Thorsness, P. E., and Koshland, D. E., Jr. (1985) J. Biol. Chem. 260, 10563-10568; Hurley, J. H., Thorsness, P. E., Ramalingam, V., Helmers, N. H., Koshland, D. E., Jr., and Stroud, R. M. (1989) Proc. Natl. Acad. Sci. U.S.A 86, 8635-8639; and Stoddard, B. L., Dean, A., and Koshland, D. E., Jr. (1993) Biochemistry 32, 9310-9316.
The crystals were 0.5 to 1.5 mm along their longest edges, with a shorter third dimension of 0.2 to 0.3 mm; the crystals belong to space group P43 21 2. The unit cell dimensions prior to photolysis and after binding liberated substrate consistently refined to values within 0.5% of the previously published lengths during data processing.
A total of six crystallographic data sets were collected for this study. The structure of the enzyme was determined prior to photolysis after soaking with each compound, both in the presence and absence of bound isocitrate/Mg^+2. The structure of the bound photolysis product was also determined for both caged compounds in the absence of isocitrate/Mg^+2.
For each experiment, a crystal was transferred to 0.5 mL of a stabilization solution (generally 10% higher ammonium sulfate than that used to grow the crystals, buffered at pH 7.0 with HEPES) and soaked overnight in the dark with 250 mM of either 1 or 3. These experiments were performed for each compound in the presence and absence of 50 mM isocitrate and MgSO4. To protect the crystal from oxidative degradation after photolysis by the nitroso photoproducts, β-mercaptoethanol (10 mM) and DTT (10 mM) were also added to the mother liquor. The crystals were mounted under safe-light in quartz capillaries with mother liquor at either end of the capillary. The mount was sealed with mineral oil and paraffin wax. Initial data were collected at room temperature in the dark on an RAXIS imaging plate area detector with a Rigaku RU-200 rotating anode X-ray generator operating at 50 kV, 80 mA. A complete data set was collected from each crystal to 2.5 Å resolution using 20 1.5° rotations at 30 minutes per frame, followed by an additional 10 frames collected with the crystal on a 45° jig (Molecular Structure Corporation) for completeness. The total decay in X-ray intensities during collection of each of these four dark data sets was less than 5% of the initial structure average factor amplitudes.
Crystals that were soaked in caged 1 or 3 in the absence of isocitrate were each irradiated after the dark data collection, using a two minute exposure with a Cole Parmer 9741-50 quartz halogen light source with a 9741-03 high intensity 150 watt bulb and dual fiber optic light pipes and focusing lenses. […]

For test [3], the target named is T1, IDH, isocitrate dehydrogenase (Escherichia coli). Kind of test: Turnover check by absorbance analysis of dissolved IDH crystals after extensive soaks. It counts as biochemical. Particulars: crystals soaked in presence of bound isocitrate/Mg+2. The source says: The nicotinamide ring, its ribose sugar, and the first backbone phosphate are all completely disordered. […] The presence of the caging group on the carboxyamide nitrogen sterically prevents hydride transfer. […] After photolysis in the absence of isocitrate, liberated NADP 1002 is still bound to the active site as previously determined for unmodified NADP, as shown in FIG. C. The clear advantage of this compound as a photolytic trigger for time-resolved studies is that it is bound to the enzyme active site prior to photolysis, so that no additional diffusion or binding events are necessary to form the Michaelis complex.

Where [4] appears, read: absence of bound isocitrate/Mg+2, dark.
Where [5] appears, read: presence of bound isocitrate/Mg+2, dark.
Setting [6] is: 10 mM DTT, monitored at 418 nm, double exponential fit.

T1 sequence (P08200 whole entry): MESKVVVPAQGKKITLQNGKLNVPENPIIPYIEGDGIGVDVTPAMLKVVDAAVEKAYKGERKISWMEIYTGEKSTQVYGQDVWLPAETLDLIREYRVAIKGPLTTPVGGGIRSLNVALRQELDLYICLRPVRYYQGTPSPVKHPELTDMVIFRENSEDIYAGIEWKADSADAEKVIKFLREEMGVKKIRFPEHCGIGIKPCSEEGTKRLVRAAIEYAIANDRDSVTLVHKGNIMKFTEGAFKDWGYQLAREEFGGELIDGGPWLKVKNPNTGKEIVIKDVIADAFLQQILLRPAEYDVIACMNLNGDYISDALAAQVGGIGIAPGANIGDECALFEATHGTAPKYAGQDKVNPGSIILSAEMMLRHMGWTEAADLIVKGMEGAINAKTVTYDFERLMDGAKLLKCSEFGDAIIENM

Consider `Nc1ncnc2c1ncn2[C@@H]1O[C@H](COP(=O)(O)OP(=O)([O-])OC[C@H]2O[C@@H]([n+]3cccc(C(=O)NC(C(=O)O)c4ccccc4[N+](=O)[O-])c3)[C@H](O)[C@@H]2O)[C@@H](O)[C@H]1OP(=O)(O)O` (stereo partly drawn) [compound 3, N-(α-Carboxy-2-nitrobenzyl)-nicotinamide adenine dinucleotide phosphate], for which the “first-order decay rate k of transient (rate of photorelease)” value in test [1] (50 mM phosphate buffer, pH 7.0) turned out to be 30 s⁻¹. This molecule yielded a rate of photorelease in test [1] (sample pH 6) of 42 s⁻¹. Moreover, the “binding to IDH active site before photolysis” value was “binds to the enzyme” in test [2] (setting [4]) and “both backbone phosphates of the caged cofactor are well ordered” in test [2] (setting [5]). In addition, the “IDH turnover with caged cofactor before photolysis” value in test [3] is reported as “turnover does not occur”.

On to “P-[1-(4,5-Dimethoxy-2-nitrophenyl)ethyl] nicotinamide adenine dinucleotide [compound 2]”, for which the fast decay component in test [1] (DTT concentration not stated) is 17000 s⁻¹.

For `COc1cc(C(C)OP(=O)(O)O[C@@H]2[C@H](O)[C@@H](COP(=O)(O)OP(=O)([O-])OC[C@H]3O[C@@H]([n+]4cccc(C(N)=O)c4)[C@H](O)[C@@H]3O)O[C@H]2n2cnc3c(N)ncnc32)c([N+](=O)[O-])cc1OC` (stereo partly drawn) [compound 1, P^2' -[1-(4,5-Dimethoxy-2-nitrophenyl)ethyl]nicotinamide adenine dinucleotide phosphate], the “aci-nitro transient decay rate, fast component” value came out at 13000 s⁻¹ in test [1] (setting [6]) and 18000 s⁻¹ in test [1] (100 mM DTT, 418 nm). The “aci-nitro transient decay rate, slow component” value in test [1] (setting [6]) stood at 93 s⁻¹; in test [1] (100 mM DTT, 418 nm), 480 s⁻¹. Also, the “binding to IDH active site before photolysis” value in test [2] (setting [4]) and in test [2] (setting [5]) was “fails to bind” throughout.
